Consider 19 compounds from patent US8772446B2, “Bifunctional chelating agents” (Nordion (Canada) Inc., priority 2010, dated 2014).

One may read the log P as the decadic logarithm of the partition coefficient of the neutral form, usually between octanol and water. A higher log P goes with higher lipophilicity.

Data set [1] deals with T1, human apo-transferrin (Homo sapiens, UniProt P02787). Briefly: ^111In-chelate stability: binding competition with human apo-transferrin at ambient temperature, PD-10 columns. Further details: Human serum apo-transferrin was purchased from Sigma-Aldrich; purchased Sigma-Aldrich; host or cells: human serum. It counts as in vitro ADME. The protocol:
Human apo-transferrin (Aldrich) was suspended in 10 mM NaHCO3 buffer at pH 6.9. Labeling solutions were prepared with chelators and ^111In in 10 mM NaHCO3 buffer at pH 5.5, and allowed to sit for 20-30 minutes. Quantitative formation of ^111In-chelate complexes was confirmed by HPLC (same methods as in Example 2). ^111In(DOTA) was formed using a microwave reactor (Biotage) at 80° C. for 10 minutes to ensure quantitative labeling. Competition experiments for all 8 chelators studied (Table 3) were performed with preformed ^111In-chelate complexes at a concentration of 36.5 mM, and with human apo-transferrin at a concentration of ˜10 mM. Samples were left to sit in sterile scintillation vials for 1 hour and 24 hours at ambient temperature. Chelate stability was determined using size-exclusion ‘desalting’ columns (GE Healthcare PD-10 pre-packed columns, Sephadex G-25 M). All compounds smaller than ˜5000 Daltons were retained by the PD-10 columns, and all transferrin was eluted. PD-10 columns were conditioned by discarding the contained bactericidal solution and eluting 20 mL of phosphate buffered saline (PBS, purchased from BioWhittaker). For analysis, the competition experiment solutions were diluted to 2.5 mL with PBS, measured with a Capintec scintillation counter, loaded onto PD-10 columns, and allowed to elute into a waste container fully. An additional 3.5 mL of PBS was then loaded onto the columns and collected into a sterile scintillation vial. PD-10 columns were discarded after a single use. The vial containing the eluent was then measured with a Capintec scintillation counter to determine the amount of ^111In bound to transferrin. The difference in radioactivity between the competition experiment solutions and the eluent from the PD-10 columns was used to determine the percent ^111In bound to transferrin, and therefore the percent stability of the complexes.

The target of data set [2] is T1, human apo-transferrin. Briefly: ^67Ga complex stability: 2-h competition with excess human apo-transferrin, HPLC. As to conditions: for Stability in competition with excess human apo-transferrin, 10 min / Stability in competition with excess human apo-transferrin, 1 h / Stability in competition with excess human apo-transferrin, 2 h: ^67Ga complex, 37° C.
Procedure: (§1) FIG. 13 illustrates stacked labelling traces of ^67Ga(dedpa)^+ of 2 h stability experiment against apo-transferrin (gradient: A: NaOAc buffer, pH 4.5, B: MeOH. 0-100% B linear gradient 20 min).
A short description of the next data set: log P. It is filed as physicochemical.
For data set [3] the following is noted: Ga(III) complex, cited from earlier work; for log KML: literature value.
A short description of data set [4]: Solution thermodynamics: formation constants (log KML) and pM of Ga(III) complexes, potentiometric titration. It counts as physicochemical. As to conditions: Calculated for 10 μM total ligand and 1 μM total metal at pH 7.4 and 25° C. As for the experimental part:
A more relevant indicator of the extent to which a metal complex is formed in solution is given by pM (−log free M) which considers the influence of ligand basicity and chelate hydrolysis.
Carbonate-free solutions of the titrant, NaOH, were prepared by dilution of 50% solution (Acros Organics) with freshly boiled MQ water under a stream of purified nitrogen gas. The solution was standardized with potassium acid phthalate and the extent of carbonate accumulation was periodically checked by titration with a standard hydrochloric acid solution and determination of the corresponding Gran titration plot.^47 Gallium ion solutions were prepared by dilution of the appropriate atomic absorption (AA) standard. The exact amount of acid present in the gallium standard was determined by titration of an equimolar solution of Ga and Na2H2EDTA. The amount of acid present was determined by Gran's method.^47
Data were collected in triplicate using PC Control (Version 6.0.91, Metrohm). The titration apparatus consisted of a 10 mL water jacketed glass vessel maintained at 25.0±0.1° C. (Julabo waterbath). Prior to and during the course of the titration, a blanket of nitrogen, passed through 10% NaOH to exclude any CO2, was maintained over the sample solution. The ionic strength was maintained at 0.16 M using NaCl. Prior to each potentiometric equilibrium study, the electrode was calibrated using standard HCl solutions. Calibration data were analysed by standard computer treatment provided within the program MacCalib to obtain the calibration parameters E0 and pKw.
As the degree of formation of Ga(III) complexes at low pH (<2) was too high for the determination of stability constants by use of direct potentiometry, the ligand-ligand competition method using Na2H2EDTA was also performed.

Data set [5] has as its target T1, human apo-transferrin. As to conditions: 40 µM.
Procedure: as §1

Read-outs that look alike come from different tables or passages of the source.

T1 sequence (P02787 20-698): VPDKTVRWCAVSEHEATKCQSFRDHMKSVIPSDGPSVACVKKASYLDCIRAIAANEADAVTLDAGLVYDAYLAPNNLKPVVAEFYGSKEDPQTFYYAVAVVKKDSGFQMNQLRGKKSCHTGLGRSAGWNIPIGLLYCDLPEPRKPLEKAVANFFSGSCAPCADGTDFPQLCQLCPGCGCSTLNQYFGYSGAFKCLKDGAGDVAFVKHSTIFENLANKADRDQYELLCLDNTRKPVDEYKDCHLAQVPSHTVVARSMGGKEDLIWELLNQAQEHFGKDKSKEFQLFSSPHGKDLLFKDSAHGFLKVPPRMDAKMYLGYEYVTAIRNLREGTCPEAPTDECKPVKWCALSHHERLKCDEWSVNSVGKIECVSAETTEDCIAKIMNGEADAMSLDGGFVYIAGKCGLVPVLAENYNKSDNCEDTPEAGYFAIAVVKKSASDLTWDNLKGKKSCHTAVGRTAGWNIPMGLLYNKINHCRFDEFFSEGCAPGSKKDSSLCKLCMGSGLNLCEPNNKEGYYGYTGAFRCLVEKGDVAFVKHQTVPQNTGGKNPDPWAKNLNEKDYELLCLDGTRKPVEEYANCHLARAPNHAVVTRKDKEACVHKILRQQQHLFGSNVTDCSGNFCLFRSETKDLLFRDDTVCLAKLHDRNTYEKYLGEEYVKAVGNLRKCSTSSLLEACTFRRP

Turning to `O=C(O)CN(CCN(CC(=O)O)Cc1cccc(C(=O)O)n1)Cc1cccc(C(=O)O)n1` [^111In(2), metal not drawn], on human apo-transferrin [1], the “% ^111In-chelate stability at 1 hour” value was 90% and the “% ^111In-chelate stability, 24 hour stability” value is listed as 91%.
As to `O=C(O)CN(CCN(CC(=O)O)Cc1cccc(C(=O)O)n1)CCN(CC(=O)O)Cc1cccc(C(=O)O)n1` [^111In(6), metal not drawn], on human apo-transferrin [1], the “% ^111In-chelate stability at 1 hour” value came to 89% and the “% ^111In-chelate stability, 24 hour stability” value is reported as 91%.
In the same order, the values of `O=C([O-])CN(CCN(CC(=O)[O-])CC(=O)[O-])CCN(CC(=O)[O-])CC(=O)[O-].[111In+3]` [^111In(DTPA), reference compound] are 86% and 88%.
Regarding `CCOc1cc(OCC)c(CN(CCN(Cc2cccc(C(=O)[O-])n2)Cc2c(OCC)cc(OCC)cc2OCC)Cc2cccc(C(=O)[O-])n2)c(OCC)c1.O=[N+]([O-])[O-].[Ga+3]` [Ga(99a)NO3], at human apo-transferrin [2], the “Stability in competition with excess human apo-transferrin, 10 min” value (“Stability in competition … 10 min” below) amounted to 95%; the “Stability in competition with excess human apo-transferrin, 1 h” value (“Stability in competition … 1 h” for short) is on record as 92%; the “Stability in competition with excess human apo-transferrin, 2 h” value (shortened to “Stability in competition … 2 h”) was found to be 91%.
On to `O=C(O)c1cccc(CNCCNCc2cccc(C(=O)O)n2)n1` [^111In(1), metal not drawn], for which, at human apo-transferrin [1], the “% ^111In-chelate stability at 1 hour” value was 98% and the “% ^111In-chelate stability, 24 hour stability” value is 43%.
On to `O=C(O)c1cccc(CNCCN(CCNCc2cccc(C(=O)O)n2)Cc2cccc(C(=O)O)n2)n1` [^111In(5), metal not drawn], for which, at human apo-transferrin [1], the “% ^111In-chelate stability, 24 hour stability” value was determined as 88%.
For `O=C(O)c1cccc(CNCCCNCc2cccc(C(=O)O)n2)n1` [^111In(3), metal not drawn], at human apo-transferrin [1], the “% ^111In-chelate stability at 1 hour” value is recorded as 91% and the “% ^111In-chelate stability, 24 hour stability” value is recorded as 85%.
With `CCOc1cc(OCC)c(CN(CCN(Cc2cc(OC)cc(C(=O)[O-])n2)Cc2c(OCC)cc(OCC)cc2OCC)Cc2cc(OC)cc(C(=O)[O-])n2)c(OCC)c1.O=[N+]([O-])[O-].[Ga+3]` [Ga(99b)NO3], the “log P” value in “log P” is listed as 1.16. On human apo-transferrin [2], the “Stability in competition … 10 min” value was found to be 94%; the “Stability in competition … 1 h” value was 93%; the “Stability in competition … 2 h” value is reported as 93%.
On to “Transferrin: iron transport protein found in high concentrations in the blood that has an affinity for Ga”, for which the “log KML (conditional constant)” value in data set [3] (conditional constant from reference) is on record as 20.3. Also, the pM in data set [4] was 21.3.
Turning to `O=C(O)CN1CCN(CC(=O)O)CCN(CC(=O)O)CCN(CC(=O)O)CC1` [DOTA, 1,4,7,10-tetraazacyclododecane-1,4,7,10-tetraacetic acid, reference compound], the “log KML” value in data set [3] is reported as 21.33. Moreover, the pM in data set [4] is listed as 18.5.
In the case of `O=C([O-])CN1CCN(CC(=O)[O-])CCN(CC(=O)[O-])CCN(CC(=O)[O-])CC1.[111In+3]` [^111In(DOTA), reference compound], the “% ^111In-chelate stability, 24 hour stability” value at human apo-transferrin [1] came to 81%.
As for `O=C(O)CN(CCCN(CC(=O)O)Cc1cccc(C(=O)O)n1)Cc1cccc(C(=O)O)n1` [^111In(4), metal not drawn], on human apo-transferrin [1], the “% ^111In-chelate stability at 1 hour” value came out at 93% and the “% ^111In-chelate stability, 24 hour stability” value is listed as 91%.
On to `O=C(O)CN(CCN(CC(=O)O)CC(=O)O)CC(=O)O` [EDTA, reference compound], for which the “log KML” value in data set [3] is reported as 21.7. Besides, the pM in data set [4] is 18.3.
For the compound `O=C(O)c1cccc(CN(CCN(Cc2ccc([N+](=O)[O-])cc2)Cc2cccc(C(=O)O)n2)Cc2ccc([N+](=O)[O-])cc2)n1` [Compound 66], the “Stability in competition … 10 min” value at human apo-transferrin [5] (10 min) came to 88%. Further, the “Stability in competition … 1 h” value on human apo-transferrin [5] (1 h) is 69%. The “Stability in competition … 2 h” value on human apo-transferrin [5] (2 h) stood at 51%.
`COc1cc(CN(CCN(Cc2cc(OC)cc(OC)c2)Cc2cccc(C(=O)[O-])n2)Cc2cccc(C(=O)[O-])n2)cc(OC)c1.O=[N+]([O-])[O-].[Ga+3]` [Ga(88)NO3]: the “log P” value in the data set “log P” was −0.32. Moreover, on human apo-transferrin [2], the “Stability in competition … 10 min” value came out at 76%; the “Stability in competition … 1 h” value is given as 59%; the “Stability in competition … 2 h” value was 52%.
Take `O=C(O)c1cccc(CNCCNCc2cccc(C(=O)O)n2)n1` [Compound H2dedpa]: the pM in data set [4] is given as 27.4. Besides, at human apo-transferrin [2] (challenge experiment), the “Extraction of gallium from transferrin (in words)” value is “capable of extracting gallium from transferrin”.
Consider `COc1cc(CN(CCN(Cc2cc(OC)cc(C(=O)[O-])n2)Cc2c(OC)cc(OC)cc2OC)Cc2c(OC)cc(OC)cc2OC)nc(C(=O)[O-])c1.O=[N+]([O-])[O-].[Ga+3]` [Ga(91b)NO3], for which the “log P” value in “log P” is 0.66. In addition, on human apo-transferrin [2], the “Stability in competition … 10 min” value is 97%; the “Stability in competition … 1 h” value was 96%; the “Stability in competition … 2 h” value is recorded as 96%.
With `COc1cc(OC)c(CN(CCN(Cc2cccc(C(=O)[O-])n2)Cc2c(OC)cc(OC)cc2OC)Cc2cccc(C(=O)[O-])n2)c(OC)c1.O=[N+]([O-])[O-].[Ga+3]` [Ga(91a)NO3], in the data set “log P”, the “log P” value was −0.03. At human apo-transferrin [2], the “Stability in competition … 10 min” value worked out at 86%; the “Stability in competition … 1 h” value was found to be 85%; the “Stability in competition … 2 h” value is on record as 82%.
For the compound `O=C(O)CN1CCN(CC(=O)O)CCN(CC(=O)O)CC1` [NOTA, 1,4,7-triazacyclononane-1,4,7-triacetic acid, reference compound], in data set [3], the “log KML” value was 30.98. Further, the pM in data set [4] is reported as 27.9.
